Read-outs that look alike come from different tables or passages of the source.
Test system: UDP-glucuronosyl transferase
Assay type: in vitro ADME, human
Details: for % Control (M3G Formation Activity) / % Control (M6G Formation Activity): morphine 2mM, HLM protein 0.5 mg/mL, 30 min
Experimental: Incubations were conducted in 2-mL polypropylene centrifuge tubes. Incubation mixtures containing HLM suspension and alamethicin (25 µg/mL) in 0.1 M potassium phosphate buffer (pH 7.4), were placed on wet ice for 5 min. […] Reactions were initiated by the addition of 50 mM UDPGA spiking solution. […] Samples were incubated aerobically in a water bath at 37 °C for the required amount of time and reactions terminated by the addition of 400 µL of the appropriate quench solution. The 2-mL centrifuge tubes were vortex mixed and stored in a -20 °C freezer for ca. 20 min prior to centrifugation at 13.3 × g, 4 °C for 10 min. Supernatants were analyzed by LC-MS/MS for morphine metabolites formation.
UGT-dependent activities were determined by monitoring the formation of enzyme specific metabolites from marker substrates. […] Incubation with selective inhibitors (positive control) was performed at a concentration above their established IC50 for the confirmation of enzyme activity and inhibitory effects.
Incubations were performed in 2-mL centrifuge tubes. Incubation mixtures containing HLM suspension and alamethicin (25 µg/mL) in 0.1 M potassium phosphate buffer (pH 7.4), were placed on wet ice for 5 min. […] Reactions were initiated by the addition of UDPGA. The final incubation mixture contained 0.5 mg/mL HLM, 2 mM MgCl2, 5 mM UDPGA, various concentration of Compound A or a selective inhibitor. Samples were incubated aerobically in a water bath at 37 °C for 30 min. The incubation systems were terminated by the addition of a 400-µL quenching solution. The 2-mL centrifuge tubes were vortex mixed and stored in a -20 °C freezer for approximately 20 min prior to centrifugation at 13.3 × g, 4 °C for 10 min. Supernatants were analyzed by LC-MS/MS.
Percent of Control = Cmet ÷ Ccontrol × 100%
Cmet: Concentration of the metabolite in the incubations in the presence of Compound A or selective inhibitor
Ccontrol: Concentration of the enzyme-specific metabolite in the incubations in the absence of Compound A and selective inhibitor
The IC50 for Compound A was estimated by non-linear regression analysis of individual sets of percent inhibition values using GraphPad Prism 5.

[1] = positive control incubation, same conditions (2 mM morphine, HLM 0.5 mg/mL, 30 min)

COc1ccc2c(cccc2[C@H]2CO[C@H](CCCNC(=O)OCC(N)=O)OC2)c1 [Compound A, 2-amino-2-oxoethyl trans-3-[5-(6-methoxy-naphtalen-1-yl)-1,3-dioxan-2-yl]propyl-carbamate]
IC50 (2 mM morphine in HLM, Compound A 0.5 to 250 µM, M3G and M6G formation monitored): could not be estimated | % Control (M3G Formation Activity) (Compound A 0.5 µM): 97.7% | % Control (M6G Formation Activity) (Compound A 0.5 µM): 96.9% | % Control (M3G Formation Activity) (Compound A 1.0 µM): 96.2% | % Control (M6G Formation Activity) (Compound A 1.0 µM): 94.4% | % Control (M3G Formation Activity) (Compound A 5.0 µM): 106.0% | % Control (M6G Formation Activity) (Compound A 5.0 µM): 102.4% | % Control (M3G Formation Activity) (Compound A 10 µM): 107.9% | % Control (M6G Formation Activity) (Compound A 10 µM): 110.4% | % Control (M3G Formation Activity) (Compound A 25 µM): 108.3% | % Control (M6G Formation Activity) (Compound A 25 µM): 105.8% | % Control (M3G Formation Activity) (Compound A 50 µM): 105.7% | % Control (M6G Formation Activity) (Compound A 50 µM): 108.3% | % Control (M3G Formation Activity) (Compound A 100 µM): 92.7% | % Control (M6G Formation Activity) (Compound A 100 µM): 97.4% | % Control (M3G Formation Activity) (Compound A 250 µM): 94.2% | % Control (M6G Formation Activity) (Compound A 250 µM): 96.5% | drug interaction with morphine (according to in vitro results): no significant drug interaction | inhibition of morphine metabolism (human liver microsomes, formation of morphine-3-glucuronide and morphine-6-glucuronide monitored): no inhibition

CC(=O)N1CCN(c2ccc(OCC3COC(Cn4ccnc4)(c4ccc(Cl)cc4Cl)O3)cc2)CC1 (stereo not drawn) [ketoconazole, reference compound]
inhibition to M3G activity [1]: ≥ 98.5% | inhibition to M6G activity [1]: ≥ 98.5%

From patent publication EP2545915A1, “2-amino-2-oxoethyl trans-3-[5-(6-methoxy-naphtalen-1-yl)-1,3-dioxan-2-yl]propyl-carbamate for use in the treatment of persistent cancer pain” (SANOFI, priority 2011, dated 2013)
